Biological target: PI3K γ (Homo sapiens, UniProt P48736)
Assay: PI3 kinase phosphorylation assay (Biological Method 1), Ki γ
Assay type: biochemical
Procedure: The compounds of the invention were synthesized according to the examples provided above. PI3K inhibitory (IC50) values of the compounds were determined according to Biological Method 1.
Assay 1: Homogenous Solution Phase Assay
Compounds to be tested are dissolved in DMSO and directly distributed into 384-well flashplates at 1.25 μL per well. To start the reaction, 20 μL of 6 nM PI3 kinase are added into each well followed by 20 μL of 400 nM ATP containing a trace of radiolabeled ATP and 900 nM 1-alpha-phosphatidylinositol (PI). The plates are briefly centrifuged to remove any air gap. The reaction is performed for 15 minutes and then stopped by the addition of 20 μL of 100 mM EDTA. The stopped reaction is incubated overnight at RT to allow the lipid substrate to bind by hydrophobic interaction to the surface of the flashplate. The liquid in the wells is then washed away, and the labeled substrate is detected with scintillation counting.
Assay 2: One Step Solid Phase Assay
This method is similar to Assay 1 except that the lipid substrate (1-alpha-phosphatidylinositol (PI)) is first dissolved in a coating buffer and incubated on flashplate at room temperature overnight to allow the lipid substrate to bind by hydrophobic interaction to the surface of the flashplate. Unbound substrate is then washed away. On the day of assay, 20 μL of 6 nM PI3 kinase are added into each well followed by 20 μL of 400 nM ATP containing trace of radiolabeled ATP. Compounds are added together with enzyme and ATP to the lipid-coated plates. The plates are briefly centrifuged to remove any air gap. The reaction is performed for two to three hours. The reaction is stopped by addition of 20 μL of 100 mM EDTA or by immediate plate washing. Phosphorylated lipid substrate is detected by scintillation counting.
Assay 3: ATP Depletion Assay
Compounds to be tested are dissolved in DMSO and directly distributed into a black 384-well plate at 1.25 μL per well. To start the reaction, 25 μL of 10 nM PI3 kinase and 5 μg/mL 1-alpha-phosphatidylinositol (PI) are added into each well followed by 25 μL of 2 μM ATP. The reaction is performed until approx 50% of the ATP is depleted, and then stopped by the addition of 25 μL of KinaseGlo solution. The stopped reaction is incubated for 5 minutes and the remaining ATP is then detected via luminescence.

[1] = Table 3, compounds of formula XI
[2] = Table 1, compounds of formula X
[3] = Table 2, compounds of formula X

PI3K γ, sequence (P48736 whole entry): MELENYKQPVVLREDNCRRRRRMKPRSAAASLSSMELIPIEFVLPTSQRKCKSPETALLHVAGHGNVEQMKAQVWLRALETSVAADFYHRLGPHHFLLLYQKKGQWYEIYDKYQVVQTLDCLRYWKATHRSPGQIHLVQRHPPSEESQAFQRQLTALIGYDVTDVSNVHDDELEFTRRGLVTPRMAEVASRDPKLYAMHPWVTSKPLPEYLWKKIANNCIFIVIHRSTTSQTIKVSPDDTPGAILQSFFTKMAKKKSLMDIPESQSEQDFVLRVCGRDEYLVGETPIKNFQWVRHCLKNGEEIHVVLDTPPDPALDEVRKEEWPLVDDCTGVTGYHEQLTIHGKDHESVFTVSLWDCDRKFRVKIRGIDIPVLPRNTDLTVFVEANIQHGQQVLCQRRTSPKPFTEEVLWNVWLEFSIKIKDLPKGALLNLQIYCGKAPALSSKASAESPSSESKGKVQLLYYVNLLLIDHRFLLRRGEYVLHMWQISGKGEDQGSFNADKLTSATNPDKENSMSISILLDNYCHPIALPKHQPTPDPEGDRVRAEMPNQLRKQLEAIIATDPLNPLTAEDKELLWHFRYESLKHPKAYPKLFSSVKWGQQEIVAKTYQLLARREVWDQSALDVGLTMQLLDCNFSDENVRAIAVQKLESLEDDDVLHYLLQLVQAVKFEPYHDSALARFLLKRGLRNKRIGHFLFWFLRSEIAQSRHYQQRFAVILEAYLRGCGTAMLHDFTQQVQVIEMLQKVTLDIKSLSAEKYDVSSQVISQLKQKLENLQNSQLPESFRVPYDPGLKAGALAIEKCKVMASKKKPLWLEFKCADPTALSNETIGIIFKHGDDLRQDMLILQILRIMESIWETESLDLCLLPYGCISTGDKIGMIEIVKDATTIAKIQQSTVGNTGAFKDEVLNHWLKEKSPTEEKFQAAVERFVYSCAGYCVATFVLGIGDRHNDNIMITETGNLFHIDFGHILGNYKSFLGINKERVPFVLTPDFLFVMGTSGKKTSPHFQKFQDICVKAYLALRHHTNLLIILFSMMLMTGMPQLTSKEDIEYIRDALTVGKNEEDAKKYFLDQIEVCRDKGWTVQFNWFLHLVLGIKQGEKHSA

`CCc1nnn(CCNC(=O)Nc2nc3ccc(-c4cncc(C(F)(F)F)c4)cc3s2)n1` [Example 2-11, 1-[2-(5-Ethyl-tetrazol-2-yl)-ethyl]-3-[6-(5-trifluoromethyl-pyridin-3-yl)-benzothiazol-2-yl]urea] gave a Ki [1] of 0.242 µM.
Molecule `COc1ccc(-c2ccc3nc(NC(=O)NCCc4nnn(C(C)C)n4)cn3c2)cn1` [drawing 51] has a Ki [2] of 0.301 µM.
`CC(C)n1nnc(CCNC(=O)Nc2cn3cc(-c4ccccc4)ccc3n2)n1` [drawing 75] showed a Ki [2] of 0.423 µM.
`CC(C)n1nnc(CCNC(=O)Nc2cn3cc(-c4ccccc4)ccc3n2)n1` [Example 1-31, 1-[2-(2-Isopropyl-2H-tetrazol-5-yl)-ethyl]-3-(6-phenyl-imidazo[1,2-a]pyridin-2-yl)-urea] was tested, and the Ki [3] was 0.423 µM.
`CC(C)n1nnc(CCNC(=O)Nc2cn3cc(-c4ccncc4)ccc3n2)n1` [Example 1-2, 1-[2-(2-Isopropyl-2H-tetrazol-5-yl)-ethyl]-3-(6-pyridin-4-yl-imidazo[1,2-a]pyridin-2-yl)-urea] gave a Ki [3] of 0.135 µM.
`CC(C)n1nnc(CCNC(=O)Nc2cn3cc(-c4cccc(F)c4)ccc3n2)n1` [drawing 69] was tested, and the Ki [2] was 0.836 µM.
Work on `CC(C)n1nnc(CCNC(=O)Nc2cn3cc(-c4cncnc4)ccc3n2)n1` [drawing 21] yielded a Ki [2] of 0.165 µM.
In the case of `O=C(NCCc1nnn(CCF)n1)Nc1nc2ccc(-c3cncc(C(=O)N4CCOCC4)c3)cc2s1` [Example 2-7, 1-{2-[2-(2-Fluoro-ethyl)-2H-tetrazol-5-yl]-ethyl}-3-{6-[5-(morpholine-4-carbonyl)-pyridin-3-yl]-benzothiazol-2-yl}-urea], the Ki [1] is reported as 0.0055 µM.
Work on `CCn1nnc(CCNC(=O)Nc2cn3cc(-c4cnc5ccccc5c4)ccc3n2)n1` [drawing 73] yielded a Ki [2] of 0.57 µM.
For `CCn1nnc(CCNC(=O)Nc2cn3nc(-c4cncc(C(F)(F)F)c4)ccc3n2)n1` [Example 3-1, 1-[2-(2H-Ethyl-2H-tetrazole-5-yl)-ethyl]-3-[6-(5-trifluoromethyl-pyridin-3-yl)-imidazo[1,2-b]pyridazin-2-yl]-urea], the Ki (Table 4) was 0.012 µM.
`CCn1nnc(CCNC(=O)Nc2cn3cc(-c4cncc(C(F)(F)F)c4)ncc3n2)n1` [Example 3-4, 1-[2-(2-Ethyl-2H-tetrazol-5-yl)-ethyl]-3-[6-(5-trifluoromethyl-pyridin-3-yl)-imidazo[1,2-a]pyrazin-2-yl]-urea] was tested, and the Ki (Table 4) was 0.027 µM.
Molecule `CCn1nnc(CCNC(=O)Nc2cn3cc(-c4cccc(C(F)(F)F)c4)ccc3n2)n1` [Example 1-9, 1-[2-(2-Ethyl-2H-tetrazol-5-yl)-ethyl]-3-[6-(3-trifluoromethyl-phenyl)-imidazo[1,2-a]pyridin-2-yl]-urea] has a Ki [3] of 0.24 µM.
`CC(C)n1nnc(CCNC(=O)Nc2cn3cc(-c4cncc(-c5ccccc5)c4)ccc3n2)n1` [Example 1-16, 1-[2-(2-Isopropyl-2H-tetrazol-5-yl)-ethyl]-3-[6-(5-phenyl-pyridin-3-yl)-imidazo[1,2-a]pyridin-2-yl]urea] showed a Ki [3] of 0.24 µM.
`CCn1nnc(CCNC(=O)Nc2cn3nc(-c4cnccc4C)ccc3n2)n1` [Example 3-18, 1-[2-(2-Ethyl-2H-tetrazol-5-yl)-ethyl]-3-[6-(4-methyl-pyridin-3-yl)-imidazo[1,2-b]pyridazin-2-yl]-urea] gave a Ki (Table 4) of 0.248 µM.
In the case of `CCn1nnc(CCNC(=O)Nc2nc3cc(-c4cncc(C(F)(F)F)c4)ccn3n2)n1` [Example 3-16, 1-[2-(2-Ethyl-2H-tetrazol-5-yl)-ethyl]-3-[7-(5-trifluoromethyl-pyridin-3-yl)-[1,2,4]triazolo[1,5-a]pyridin-2-yl]-urea], the Ki (Table 4) is reported as 0.64 µM.
Work on `CC(C)n1nnc(CCNC(=O)Nc2cn3cc(-c4cncc(C(F)(F)F)c4)ccc3n2)n1` [drawing 27] yielded a Ki [2] of 0.018 µM.
`CCNC(=O)Nc1nc2ccc(-c3ccc(OC)nc3)cc2s1` [Example 2-6, 1-Ethyl-3-[6-(6-methoxy-pyridin-3-yl)-benzothiazol-2-yl]urea] was tested, and the Ki [1] was 0.406 µM.
`CC(C)(C)NC(=O)CCNC(=O)Nc1cn2cc(-c3cncc(OC4CCOCC4)c3)ccc2n1` [Example 1-18, N-tert-Butyl-3-(3-{6-[5-(tetrahydro-pyran-4-yloxy)-pyridin-3-yl]-imidazo[1,2-a]pyridin-2-yl}-ureido)-propionamide] gave a Ki [3] of 0.397 µM.
`CC(C)n1nnc(CCNC(=O)Nc2cn3cc(-c4cncc(-c5ccccc5)c4)ccc3n2)n1` [drawing 45] was tested, and the Ki [2] was 0.24 µM.
`CCn1nnc(CCNC(=O)Nc2cn3cc(-c4cncc(C(F)(F)F)c4)ccc3n2)n1` [Example 1-34, 1-[2-(2-Ethyl-2H-tetrazol-5-yl)-ethyl]-3-[6-(5-trifluoromethyl-pyridin-3-yl)-imidazo[1,2-a]pyridin-2-yl]-urea] was tested, and the Ki [3] was 0.007 µM.
For `Cc1ccccc1-c1cncc(-c2ccc3nc(NC(=O)NCCc4nnn(C(C)C)n4)cn3c2)c1` [Example 1-39, 1-[2-(2-Isopropyl-2H-tetrazol-5-yl)-ethyl]-3-[6-(5-o-tolyl-pyridin-3-yl)-imidazo[1,2-a]pyridin-2-yl]urea], the Ki [3] was 1.12 µM.
`COc1ccc(-c2ccc3nc(NC(=O)NCc4cccnc4)sc3c2)cn1` [Example 2-5, 1-[6-(6-Methoxy-pyridin-3-yl)-benzothiazol-2-yl]-3-pyridin-3-ylmethyl-urea] was tested, and the Ki [1] was 0.149 µM.
With `CCc1nnn(CCNC(=O)Nc2cn3cc(-c4cncc(C(F)(F)F)c4)ccc3n2)n1` [drawing 63] the Ki [2] was 0.026 µM.
Work on `CCn1nnc(CCNC(=O)Nc2cn3cc(-c4cnn(Cc5ccccc5)c4)ccc3n2)n1` yielded a Ki [2] of 0.735 µM.
`CCn1nnc(CCNC(=O)Nc2nc3ccc(-c4cccnc4)cn3n2)n1` [Example 3-8, 1-[2-(2-Ethyl-2H-tetrazol-5-yl)-ethyl]-3-(6-pyridin-3-yl-[1,2,4]triazolo[1,5-a]pyridin-2-yl)-urea] gave a Ki (Table 4) of 0.099 µM.
`CCn1nnc(CCNC(=O)Nc2cn3cc(-c4ccc5c(c4)OCO5)ccc3n2)n1` [Example 1-8, 1-(6-Benzo[1,3]dioxol-5-yl-imidazo[1,2-a]pyridin-2-yl)-3-[2-(2-ethyl-2H-tetrazol-5-yl)-ethyl]urea] gave a Ki [3] of 0.303 µM.
`CC(=O)c1cncc(-c2ccc3nc(NC(=O)NCCc4nnn(C(C)C)n4)cn3c2)c1` [drawing 99] gave a Ki [2] of 0.008 µM.
`CCn1nnc(CCNC(=O)Nc2cn3nc(-c4cccnc4)ccc3n2)n1` [Example 3-3, 1-[6-(pyridin-3-yl)-imidazo[1,2-b]pyridazin-2-yl]-3-[2-(2-ethyl-2H-tetrazol-5-yl)-ethyl]-urea] gave a Ki (Table 4) of 0.031 µM.
In the case of `CC(C)n1nnc(CCNC(=O)Nc2cn3cc(-c4cncc(S(C)(=O)=O)c4)ccc3n2)n1`, the Ki [2] is reported as 0.014 µM.
In the case of `CC(C)n1nnc(CCNC(=O)Nc2nc3ccc(-c4cncc(C(F)(F)F)c4)cc3s2)n1` [Example 2-10, 1-[2-(2-Isopropyl-2H-tetrazol-5-yl)-ethyl]-3-[6-(5-trifluoromethyl-pyridin-3-yl)-benzothiazol-2-yl]urea], the Ki [1] is reported as 0.092 µM.
For `CCn1nnc(CCNC(=O)Nc2cn3cc(-c4cc(Cl)ccc4OC)ccc3n2)n1` [Example 1-14, 1-[6-(5-Chloro-2-methoxy-phenyl)-imidazo[1,2-a]pyridin-2-yl]-3-[2-(2-ethyl-2H-tetrazol-5-yl)-ethyl]urea], the Ki [3] was 0.204 µM.
Molecule `CCn1nnc(CCNC(=O)Nc2cn3cc(-c4cncc(C(F)(F)F)c4)cnc3n2)n1` [Example 3-10, 1-[2-(2-Ethyl-2H-tetrazol-5-yl)-ethyl]-3-[6-(5-trifluoromethyl-pyridin-3-yl)-imidazo[1,2-a]pyrimnidin-2-yl]-urea] has a Ki (Table 4) of 0.884 µM.
Molecule `CCn1nnc(CCNC(=O)Nc2cn3cc(-c4cnc5ccccc5c4)ccc3n2)n1` [Example 1-30, 1-[2-(2-Ethyl-2H-tetrazol-5-yl)-ethyl]-3-(6-quinolin-3-yl-imidazo[1,2-a]pyridin-2-yl)-urea] has a Ki [3] of 0.57 µM.
In the case of `COc1ccc(-c2ccc3nc(NC(=O)NCCc4nnn(CCF)n4)cn3c2)cn1` [drawing 53], the Ki [2] is reported as 0.075 µM.
`COCCOCCOc1cncc(-c2ccc3nc(NC(=O)NCCc4nnn(C(C)C)n4)cn3c2)c1` [Example 1-17, 1-[2-(2-Isopropyl-2H-tetrazol-5-yl)-ethyl]-3-(6-{5-[2-(2-methoxy-ethoxy)-ethoxy]-pyridin-3-yl}-imidazo[1,2-a]pyridin-2-yl)-urea] showed a Ki [3] of 0.268 µM.
For `COc1ccc(-c2ccc3nc(NC(=O)NCCc4nnn(CCF)n4)cn3c2)cn1` [Example 1-20, 1-[2-[2-(2-Fluoro-ethyl)-2H-tetrazol-5-yl]-ethyl]-3-[6-(6-methoxy-pyridin-3-yl)-imidazo[1,2-a]pyridin-2-yl]-urea], the Ki [3] was 0.075 µM.
For “1-[2-(2-Isopropyl-2H-tetrazol-5-yl)-ethyl]-3-(6-quinolin-3-yl-imidazo[1,2-a]pyridin-2-yl)-urea [Example 1-49]”, the Ki [3] was 0.57 µM.
`CC(C)n1nnc(CCNC(=O)Nc2cn3cc(-c4ccncc4)ccc3n2)n1` [drawing 17] showed a Ki [2] of 0.135 µM.
Work on `COc1cccc(-c2ccc3nc(NC(=O)NCCc4nnn(C(C)C)n4)cn3c2)c1` [drawing 71] yielded a Ki [2] of 1.03 µM.

From US8053574B2, “Organic compounds” (Novartis AG, priority 2007, dated 2011)
